Source: US5488149A, “Substituted amic acid derivatives” (Banyu Pharmaceutical Co., Ltd., priority 1993, dated 1996)

Each compound was assayed against T1, squalene synthase (Homo sapiens, UniProt P37268) (assay: Inhibitory activities against squalene synthase). Conditions: microsome fraction from human hepatoma (Hep G2) cells; 10 μM [3H]-farnesyl pyrophosphate; pH 7.4; 37° C., 20 minutes; read-out: 50% inhibitory concentration against squalene synthase activity (IC50).
T1 construct: A microsome fraction was prepared from human-hepatoma(Hep G2) cells; endogenous in cells; host or cells: Hep G2 (human hepatoma) cells, washed microsome fraction
T1 sequence (P37268 1-417): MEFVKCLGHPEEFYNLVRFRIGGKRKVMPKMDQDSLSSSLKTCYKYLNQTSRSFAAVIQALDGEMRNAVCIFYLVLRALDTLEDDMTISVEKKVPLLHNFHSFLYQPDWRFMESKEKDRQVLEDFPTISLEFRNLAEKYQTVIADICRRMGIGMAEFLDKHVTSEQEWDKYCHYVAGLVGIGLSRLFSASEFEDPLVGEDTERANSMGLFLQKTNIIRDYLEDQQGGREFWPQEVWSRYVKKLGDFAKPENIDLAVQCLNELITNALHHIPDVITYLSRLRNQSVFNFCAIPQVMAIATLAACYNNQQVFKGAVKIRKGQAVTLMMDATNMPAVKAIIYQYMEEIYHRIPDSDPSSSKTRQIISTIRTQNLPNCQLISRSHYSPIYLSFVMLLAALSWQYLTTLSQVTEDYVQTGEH
Type: biochemical
Description: Inhibitory activities against squalene synthase (1) Preparation of a microsome fraction A microsome fraction was prepared from human-hepatoma(Hep G2) cells by the method of Shechter et al disclosed in J. Biol. Chem., 267, 8628 (1992). Namely, Hep G2 cells were homogenized in the presence of a 0.3M sucrose-1 mM DTT-1 mM EDTA-10 mM Hepes buffer solution (pH 7.4) and various protease inhibitors, and subjected to centrifugal separation at 2000×g for 5 minutes and 10000×g for 15 minutes. The obtained supernatant was further subjected to centrifugal separation at 105000×g for 60 minutes, whereupon the precipitated residue was obtained. This precipitated residue was suspended in the above buffer solution containing various protease inhibitors, and the suspension was further subjected to centrifugal separation at 105000×g for 30 minutes to wash the precipitated residue. This washing operation was repeated three times. The finally obtained precipitated residue was taken as a microsome fraction, which was suspended in the above buffer solution containing no such various protease inhibitors, and the suspension was used for measuring the enzyme activities. (2) Method for measuring squalene synthase activities The enzymatic reaction of the squalene synthase was conducted in accordance with the method of Shechter et al disclosed in J. Biol. Chem., 267, 8628 (1992). […] Biochem., 203, 310 (1992). […] 50% inhibitory concentration against squalene synthase activity

How did the IC50 turn out when `C[C@@H](NC(=O)CC(CC(=O)O)C(=O)O)[C@H](Cc1ccc2ccccc2c1)c1ccc(-c2ccccc2)cc1` (relative stereo) [Example 32, N-{(1RS, 2RS)-2-(4-Biphenylyl)-1-methyl-3-(2-naphthyl)propyl}carbamoylmethylsuccinic acid] was run?
Its IC50 is 4.7 nM.

How did the IC50 turn out when `C[C@@H](NC(=O)CC(CC(=O)O)C(=O)O)[C@H](Cc1ccc(Cl)cc1)c1ccc(-c2ccccc2)c(F)c1` (relative stereo) [Example 35, N-{(1RS, 2RS)-3-(4-Chlorophenyl)-2-(2-fluoro-4-biphenylyl)-1-methylpropyl}carbamoylmethylsuccinic acid] was run?
The IC50 was 5.4 nM.

Which IC50 does the source give for `C[C@@H](NC(=O)CC(CC(=O)O)C(=O)O)[C@@H](/C=C/c1ccc2ccccc2c1)Cc1ccc(Cl)c(Cl)c1` (relative stereo) [Example 102, N-((1RS, 2RS, 3E)-2-(3,4-dichlorobenzyl)-1-methyl-4-(2-naphthyl)-3-butenyl)carbamoylmethylsuccinic acid] here?
Its IC50 is 1.7 nM.

For `CC(CC(=O)O)CC(=O)N[C@H](C)[C@@H](/C=C/c1ccc2ccccc2c1)Cc1ccc(Cl)c(Cl)c1` (relative stereo) [Example 112, 4-{(1RS, 2RS, 3E)-2-(3,4-dichlorobenzyl)-1-1-methyl-4-(2-naphthyl)-3-butenylcarbamoyl}-3-methylbutanoic acid], which IC50 is on record?
The IC50 was 3.1 nM.

With `C[C@H](NC(=O)C[C@H](CC(=O)O)C(=O)O)[C@@H](Cc1ccc(Cl)cc1)c1ccc(-c2ccccc2)cc1` [Example 46 (2R-form), (2R)-2-[N-{(1S, 2S)-2-(4-biphenylyl)-3-(4-chlorophenyl)-1-methylpropyl} -carbamoylmethyl]succinic acid] as the compound, how does the IC50 read?
The IC50 was 3.2 nM.

How did the IC50 turn out when `C[C@@H]([C@@H](Cc1ccc(Cl)c(Cl)c1)c1ccc(-c2ccccc2)cc1)N(C)C(=O)C[C@@H](CC(=O)O)C(=O)O` [Example 49, (2S)-2-[N-{(1S, 2S)-2-(4-Biphenylyl)-3-(3, 4dichlorophenyl) -1-methylpropyl}-N-methylcarbamoylmethyl]succinic acid] was run?
Its IC50 is 3 nM.

For `C[C@H](NC(=O)CC/C=C/C(=O)O)[C@@H](Cc1ccc(Cl)c(Cl)c1)c1ccc(-c2ccccc2)c(F)c1` [Example 70, (E)-5-[N-{(1S, 2S)-3-(3,4-Dichlorophenyl)-2-(2-fluoro-4-biphenylyl)-1-methylpropyl}carbamoyl]-2-pentenoic acid], which IC50 is on record?
The IC50 was 1.4 nM.

`C[C@H](NC(=O)C[C@@H](CC(=O)O)C(=O)O)[C@@H](Cc1ccc(Cl)c(Cl)c1)OC(=O)c1ccc2ccccc2c1` [Example 92, (2S)-2-[N-{(1S, 2R)-3-(3,4-dichlorophenyl)-1-methyl-2-(2-naphthoyloxy)propyl}carbamoylmethyl]succinic acid] was tested. Which IC50 did it give?
The IC50 was 0.5 nM.
